Laboratory results published in ChEMBL document CHEMBL1201862, “PubChem BioAssay data set” (2004).
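Interpolation was linear, between the two tested concentrations surrounding the appropriate level; five concentrations were tested over 48 hours in 96-well plates. GI50 = concentration required for 50% inhibition of growth.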 The source made the active and inactive calls. Rule as the data show it: active = GI50 up to about 1.1 µM and inactive = higher.

What was measured:
Experiment in all cases: NCI tumour cell line growth inhibition, 48 h
HOP-92 = tested on: HOP-92
A498 = tested on: A498
UO-31 = tested on: UO-31
OVCAR-8 = tested on: OVCAR-8
SR = tested on: SR
HL-60 = tested on: HL-60
A549 = tested on: A549
SF-295 = tested on: SF-295
HCC 2998 = tested on: HCC 2998
NCI-H522 = tested on: NCI-H522
HCT-116 = tested on: HCT-116
RPMI-8226 = tested on: RPMI-8226
MOLT-4 = tested on: MOLT-4
OVCAR-3 = tested on: OVCAR-3
COLO 205 = tested on: COLO 205
HT-29 = tested on: HT-29
LOX IMVI = tested on: LOX IMVI
U-251 = tested on: U-251

Row | SMILES | GI50 (HOP-92) | GI50 (A498) | GI50 (UO-31) | GI50 (OVCAR-8) | GI50 (SR) | GI50 (HL-60) | GI50 (A549) | GI50 (SF-295) | GI50 (HCC 2998) | GI50 (NCI-H522) | GI50 (HCT-116) | GI50 (RPMI-8226) | GI50 (MOLT-4) | GI50 (OVCAR-3) | GI50 (COLO 205) | GI50 (HT-29) | GI50 (LOX IMVI) | GI50 (U-251)
1 | O=C1CNS(=O)(=O)N1 | > 100 µM (inactive) | > 100 µM (inactive) | > 100 µM (inactive) | > 100 µM (inactive) | > 100 µM (inactive) | > 100 µM (inactive) | > 100 µM (inactive) | > 100 µM (inactive) | > 100 µM (inactive) | > 100 µM (inactive) | > 100 µM (inactive) | > 100 µM (inactive) | > 100 µM (inactive) | > 100 µM (inactive) | > 100 µM (inactive) | > 100 µM (inactive) | – | –
2 | CCCCCCCCCc1cc(=O)c2ccc(OCc3ccccc3)cc2o1 | > 100 µM (inactive) | – | > 100 µM (inactive) | > 100 µM (inactive) | – | 14.5 µM (inactive) | 70.8 µM (inactive) | > 100 µM (inactive) | > 100 µM (inactive) | > 100 µM (inactive) | 71.3 µM (inactive) | – | – | > 100 µM (inactive) | > 100 µM (inactive) | > 100 µM (inactive) | > 100 µM (inactive) | > 100 µM (inactive)
3 | OC1(c2ccccc2)OC(C#Cc2ccccc2)(c2ccccc2)c2ccccc21 (configuration not stated) | 4 µM (inactive) | 2.82 µM (inactive) | 1.71 µM (inactive) | 2.45 µM (inactive) | 2.5 µM (inactive) | 2.58 µM (inactive) | 3.86 µM (inactive) | 5.57 µM (inactive) | – | 7.48 µM (inactive) | 1.7 µM (inactive) | 1.94 µM (inactive) | 2.08 µM (inactive) | 2.31 µM (inactive) | 2.31 µM (inactive) | 2.02 µM (inactive) | 2.91 µM (inactive) | 4.12 µM (inactive)
4 | N#CC1([N+](=O)[O-])C=C1c1ccccc1 (configuration not stated) | – | – | > 100 µM (inactive) | > 100 µM (inactive) | 25.2 µM (inactive) | 23.3 µM (inactive) | > 100 µM (inactive) | > 100 µM (inactive) | – | 23.4 µM (inactive) | 32.4 µM (inactive) | 19.5 µM (inactive) | 22.7 µM (inactive) | > 100 µM (inactive) | > 100 µM (inactive) | 35.9 µM (inactive) | 28.6 µM (inactive) | > 100 µM (inactive)
5 | CCOC(=O)c1c2cccccc2n2c(=O)cc(C)nc12 | – | > 100 µM (inactive) | > 100 µM (inactive) | > 100 µM (inactive) | > 100 µM (inactive) | > 100 µM (inactive) | > 100 µM (inactive) | > 100 µM (inactive) | > 100 µM (inactive) | > 100 µM (inactive) | – | > 100 µM (inactive) | > 100 µM (inactive) | > 100 µM (inactive) | > 100 µM (inactive) | > 100 µM (inactive) | > 100 µM (inactive) | > 100 µM (inactive)
6 | O=C(CC(=O)N1N=C(n2ccc3ccccc32)CC1c1ccccc1)Nc1ccc(Cl)cc1 (configuration not stated) | 77.6 µM (inactive) | > 100 µM (inactive) | > 100 µM (inactive) | > 100 µM (inactive) | – | > 100 µM (inactive) | > 100 µM (inactive) | > 100 µM (inactive) | > 100 µM (inactive) | > 100 µM (inactive) | > 100 µM (inactive) | 52.1 µM (inactive) | 8.39 µM (inactive) | > 100 µM (inactive) | > 100 µM (inactive) | > 100 µM (inactive) | > 100 µM (inactive) | > 100 µM (inactive)
7 | c1ccc(C2N=NN(c3ccccc3)C2N2CCCCC2)cc1 (configuration not stated) | 17.3 µM (inactive) | – | > 100 µM (inactive) | > 10 µM (inactive) | > 100 µM (inactive) | > 100 µM (inactive) | > 100 µM (inactive) | 33.8 µM (inactive) | > 100 µM (inactive) | > 100 µM (inactive) | > 100 µM (inactive) | > 100 µM (inactive) | > 100 µM (inactive) | > 100 µM (inactive) | > 100 µM (inactive) | > 100 µM (inactive) | > 100 µM (inactive) | 56 µM (inactive)
8 | Cc1ccc(NC(=O)CC2SC(Nc3cccc(Cl)c3C)=NC2=O)cc1 (configuration not stated) | – | 33 µM (inactive) | 22.6 µM (inactive) | 40.6 µM (inactive) | – | – | 51.1 µM (inactive) | 39.6 µM (inactive) | 99.8 µM (inactive) | – | – | 28.2 µM (inactive) | 33 µM (inactive) | 23 µM (inactive) | 64.7 µM (inactive) | > 100 µM (inactive) | > 100 µM (inactive) | 50.4 µM (inactive)
9 | COc1cccc2c1C(=O)c1c(O)c3c(c(O)c1C2=O)C[C@@](O)(C(=O)CO)CC3OC1CC(N(C)CCOCC(OC(C)=O)OC(C)=O)C(O)C(C)O1 (some centres not stated) | > 0.01 µM (active) | – | > 0.01 µM (active) | > 0.01 µM (active) | – | > 0.01 µM (active) | > 0.01 µM (active) | > 0.01 µM (active) | > 0.01 µM (active) | > 0.01 µM (active) | – | > 0.01 µM (active) | > 0.01 µM (active) | > 0.01 µM (active) | – | > 0.01 µM (active) | > 0.01 µM (active) | > 0.01 µM (active)
10 | Cc1nc(=O)n2c(C)n[nH]c2c1C(=O)Nc1cc(Cl)cc(Cl)c1 | 17.5 µM (inactive) | – | 20.4 µM (inactive) | 45.5 µM (inactive) | 19.9 µM (inactive) | 20.1 µM (inactive) | 19.2 µM (inactive) | 31.4 µM (inactive) | – | 6.01 µM (inactive) | 27.5 µM (inactive) | 9.91 µM (inactive) | 26.9 µM (inactive) | 14.2 µM (inactive) | 26.7 µM (inactive) | 31.3 µM (inactive) | 36.2 µM (inactive) | 21.1 µM (inactive)
11 | CC1CCCC(C(=O)/C(=C/c2cccc(Cl)c2)C(=O)C(=O)O)C1 (configuration not stated) | 39 µM (inactive) | > 100 µM (inactive) | 61.2 µM (inactive) | 20.3 µM (inactive) | – | 20 µM (inactive) | 60.7 µM (inactive) | 50.4 µM (inactive) | 12.8 µM (inactive) | 0.0161 µM (active) | 13.8 µM (inactive) | 14.7 µM (inactive) | 19 µM (inactive) | 24.7 µM (inactive) | 37.3 µM (inactive) | 18.4 µM (inactive) | – | 17.3 µM (inactive)
12 | CC1CCC23COC(=O)C2C(O)CCC3C1(C)CC(O)c1ccoc1 (configuration not stated) | > 100 µM (inactive) | > 100 µM (inactive) | > 100 µM (inactive) | > 100 µM (inactive) | – | – | > 100 µM (inactive) | > 100 µM (inactive) | > 100 µM (inactive) | > 100 µM (inactive) | > 100 µM (inactive) | – | > 100 µM (inactive) | > 100 µM (inactive) | > 100 µM (inactive) | > 100 µM (inactive) | > 100 µM (inactive) | > 100 µM (inactive)
13 | c1ccc2c(c1)CCc1c(-c3ccncc3)n[nH]c1-2 | – | 25.9 µM (inactive) | – | 29.4 µM (inactive) | 27.8 µM (inactive) | 34.3 µM (inactive) | 30.8 µM (inactive) | 45.7 µM (inactive) | 33.1 µM (inactive) | > 10 µM (inactive) | 22.2 µM (inactive) | 26.5 µM (inactive) | 36 µM (inactive) | 16.7 µM (inactive) | 25.7 µM (inactive) | 44.6 µM (inactive) | 23.3 µM (inactive) | 13.6 µM (inactive)
